# Reference: patent US5759836A, “Osteoarthritis-associated inducable isoform of nitric oxide synthetase” (priority 1995, dated 1998)
# Entries after “also recorded” stand apart in the source; their conditions may differ. Read-outs that look alike come from different tables or passages of the source.
# Experiments:
# [1] = system: iNOS; assay: iNOS expression in stimulated rat chondrosarcomas; assay type: cell-based; details: for inhibition of iNOS expression in rat chondrosarcomas: 72 h, added 1 h prior to cytokines; for effect on iNOS in rat chondrosarcomas: LPS/cytokine-stimulated, L-NMMA 500 μM, indomethacin 20 μM
# Experimental: NSAIDs were tested in: (FIG. 5A) rat chondrosarcomas stimulated with LPS, and (FIG. 5B) unstimulated OA cartilage (n=3).
# [2] = system: iNOS; assay: Nitrite accumulation in LPS-stimulated RAW 264.7 murine macrophages (Griess method); assay type: cell-based; details: for inhibition at 5 µM: RAW264.7, read-out: Nitrite released, % inhibition, 5 μM (Table 2: 5 μm)
# Experimental: Effects of NSAIDs on Nitrite Accumulation. […] The expression and activity of iNOS were monitored by estimation of the stable end-product: nitrites.
# concentrations of NSAIDs for 2 h followed by addition of 100 ng/ml of LPS
# After 16-18 h of incubation, the medium was used to estimate the
# accumulation of nitrite by the Greiss method (Green et al., Anal Biochem.
# (§1) The specific activity of iNOS was determined in cellfre
# (§2) extracts at a given time period as described. The nitrite and specific
# activity data are representative of mean ± SD value, as determined by
# student t test, for 10 and 4 independent experiments, respectively. The p
# values described are compared with LPSstimulated cells. […]
# [3] = system: COX; details: cited from earlier work
# [4] = system: iNOS; assay: In vitro iNOS catalytic activity in cell-free extracts preincubated with drug (L-[3H]-arginine to L-[3H]-citrulline); assay type: biochemical, murine; details: for inhibition of iNOS catalytic activity in cell-free extracts (specific activity in in vitro assay): 1 mM
# [5] = system: OA-NOS; assay: Sensitivity of OA-NOS to agents (Table 3 comparison)
# [6] = cited from earlier work; for NO biosynthesis, paw swelling and histopathological changes in ankle joints: rat adjuvant arthritis
# [7] = system: rabbit chondrocytes; details: cited from earlier work
# [8] = system: OA-NOS; assay: Nitrite release by OA-affected articular cartilage, ex vivo organ culture; assay type: cell-based, human
# [9] = system: human chondrocyte iNOS; details: cited from earlier work
# [10] = system: NOS; details: cited from earlier work
# [11] = system: iNOS; assay: iNOS protein expression, Western blot, LPS-treated RAW 264.7 cells; assay type: cell-based, murine
# Experimental: Western Blot Analysis. Equal amounts of protein (50 μg) estimated by BCA reagent (Pierce, Rockford, Ill.) were loaded onto SDS-PAGE gels and stained to verify the concentrations of various protein fractions by examining the intensities of the protein bands on the gels. Western blot analysis was carried out from the same cell extracts. The Western-blotted membrane was probed with a specific anti-iNOS monoclonal antibody, as specified by Transduction Laboratories (Lexington, Ky.). The blots were developed using the ECL Western blot system (Amersham, Arlington Heights, Ill.). Quantitation of the bands was performed using a densitometer from Molecular Dynamics (Sunnyville, Calif.).
# The protein expression data are represented as
# ND = not done. NS = not significant.
# A Western blot analysis of iNOS protein was carried out in cells treated with […] LPS in the presence and absence of NSAIDs for 16-18 h.
# [12] = system: iNOS; assay: Specific activity of iNOS in cell-free extracts of RAW 264.7 cells exposed to drug during LPS induction; assay type: cell-based, murine
# Experimental: Assays for iNOS in Cell-Free Extracts. […] The reaction mixture for iNOS assay (in cell-free extracts) consists of Tris […] (pH 7.8); BSA 1 mg/ml; DTT 1 mM; CaCl2, 2 mM; FAD 10 μM; BH4 10 μM; L-arginine 30 μM; NADPH 1 mM. The assay mixture for cNOS consists of Tris 50 mM (pH 7.8); L-arginine 50 μM; calmodulin 10 μg/ml; BH4 10 μM; CaCl2 2 mM; NADPH 100 μM. RAW 264.7 cells were induced with LPS in the presence and absence of NSAIDs for 16-18 h. […] Cells were re-pelleted at 4° C. and resuspended in Tris buffer (10 mM, pH 7.4) containing 1 mg/ml each chymostatin, antipain, leupeptin and pepstatin, 1 mM DTT and 1 mM PMSF. Cells were lysed in a Polytron PT 1200 homogenizer (Kinematica AG, Switzerland) after 3 cycles of rapid freeze-thawing. The lysate was centrifuged at 16,000 rpm for 60 min at 4° C., and the supernatants were used as cell-free extracts. […] After 20 min the assays were terminated by heating the reaction mixture at 90° C. for 5 min. The precipitates were removed by centrifuging at 15,000 rpm for 20 min. Ten microliters (≈50,000 cpm) of the supernatant was spotted on activated Avicel TLC plates (Analtech, Newark, Del.). The TLC plates were developed in a solvent system consisting of ethanol:water:ammonia (80:16:4). Quantitation of the spot for L-[^3 3H]-citrulline was performed by a Bioscan System 200 Imaging Scanner. A phosphoimager can also be used for such quantification.
# as §1, §2
# [13] = systemic, rodent; cited from earlier work
# [14] = system: human iNOS; details: crude lysates; cited from earlier work
# [15] = system: neutrophil; details: data not shown; read-out: ability to inhibit fMet-Leu-Phe-induced neutrophil aggregation (IC50); cited from earlier work
# [16] = system: NF-κB; details: cited from earlier work
# [17] = system: iNOS; details: cited from earlier work
# [18] = Mus musculus, LPS 100 ng/ml, 16-18 h
compound,measurement,setting,value
NC(=O)N1C(=O)/C(=C(\O)c2cccs2)c2cc(Cl)ccc21 [tenidap],inhibition of iNOS expression in rat chondrosarcomas,[1],~ 50%
same,effect on iNOS in rat chondrosarcomas,[1],significant inhibition of iNOS
"CC(=O)Nc1ccc(O)cc1 [Acetaminophen, acetaminophen]",effect on iNOS in rat chondrosarcomas,[1],no significant effect on iNOS expression
same,block of nitrite production,"[2]; 60-120 μM, LPS-stimulated",1±1%
CC(=O)n1ccnc1 [N-acetylimidazole],cyclooxygenase and peroxidase activity of COX,[3],inhibits both the cyclooxygenase and the peroxidase activity of COX
same,inhibition of iNOS catalytic activity in cell-free extracts (specific activity in in vitro assay),[4]; 20 min preincubation,~ 74%
same,inhibition of iNOS catalytic activity in cell-free extracts (specific activity in in vitro assay),"[4]; 20 min preincubation, listed as NAI",74%
"CN=C(N)NCCC[C@H](N)C(=O)O [L-NMMA, N^G -monomethyl-L-arginine acetate]",sensitivity of OA-NOS,[5],blocked; also recorded: shows sensitivity
same,inhibition of iNOS expression in rat chondrosarcomas,[1],~ 65%
same,effect on iNOS in rat chondrosarcomas,[1],significant inhibition of iNOS
same,paw swelling,[6]; partial inhibition of NOS,sufficient to reduce paw swelling
same,"NO biosynthesis, paw swelling and histopathological changes in ankle joints",[6],blocked (in a dose-dependent manner)
same,proteoglycan synthesis,[7],restored proteoglycan synthesis
same,effect on nitrite accumulation / NOS expression in OA cartilage,"[8]; unstimulated OA cartilage, L-NMMA 500 μM, indomethacin 5 μM",inhibited
N=C(N)NCCC[C@H](N)C(=O)O [L-arginine],"NO biosynthesis, paw swelling and histopathological changes in ankle joints",[6],competitively reversed the effect of L-NMMA
C[C@@H]1C[C@@H]([C@H](O)CC2CC(=O)NC(=O)C2)C(=O)[C@@H](C)C1 [cycloheximide],sensitivity of OA-NOS,[5],blocked; also recorded: shows sensitivity
same,inhibition at 3.5 µM,"[8]; Homo sapiens, 3.5 μM, 24 h, read-out: inhibition of nitrite accumulation",> 90%
same,inhibition at 17.5 µM,"[8]; Homo sapiens, 17.5 μM, 24 h, read-out: inhibition of nitrite accumulation",> 90%
same,block of nitrite accumulation,"[8]; cycloheximide 35 μM or PDTC 30 μM, 24 h, cytokine/endotoxin-induced and control cartilage",> 90%
C[C@@H]1C[C@H]2[C@@H]3CCC4=CC(=O)C=C[C@]4(C)[C@@]3(F)[C@@H](O)C[C@]2(C)[C@@]1(O)C(=O)CO [dexamethasone],sensitivity of human chondrocyte iNOS,[9],lack of sensitivity
same,"NOS expression in murine macrophages, endothelial cells and smooth muscles",[10],abolishes NOS expression
"COc1ccc2c(c1)c(CC(=O)O)c(C)n2C(=O)c1ccc(Cl)cc1 [Indomethacin, indomethacin]",COX inhibition,[3],a potent inhibitor of COX
same,inhibition at 5 µM,"[11]; Mus musculus, RAW264.7, read-out: inhibition of iNOS protein expression, 5 μm (Table 2)",0%
same,inhibition at 5 µM,"[12]; Mus musculus, RAW264.7, 16 h, read-out: Specific activity, % inhibition, 5 μM (Table 2: 5 μm), cell-free extracts, 16 h",2%
same,inhibition of iNOS specific activity in in vitro assay,"[4]; 5 μM, 20 min preincubation",0%
same,extent of inhibition of nitrite accumulation,[2],not appreciably greater than that seen with 5 μM
same,inhibition at 5 µM,[2]; [18],~7%
same,rank order of inhibition of spontaneous nitrite accumulation,[8],aspirin>indomethacin>sodium salicylate
CC(C)Cc1ccc(C(C)C(=O)O)cc1 (stereo not drawn) [ibuprofen],effect on iNOS in rat chondrosarcomas,[1],no significant effect on iNOS expression
N=C(N)NN [aminoguanidine],sensitivity of OA-NOS,[5],blocked; also recorded: shows sensitivity
same,effect on nitrite accumulation / NOS expression in OA cartilage,[8],inhibited
TNF-α,arthritis morbidity / protection,[13],increase arthritis morbidity
TGF-β,sensitivity of OA-NOS,[5],insensitive; also recorded: not sensitive
"C[C@]12CCC(=O)C=C1CC[C@@H]1[C@@H]2[C@@H](O)C[C@@]2(C)[C@H]1CC[C@]2(O)C(=O)CO [Hydrocortisone, hydrocortisone]",sensitivity of human chondrocyte iNOS,[9],lack of sensitivity
same,sensitivity of OA-NOS,[5],insensitive; also recorded: not sensitive
same,effect on iNOS in rat chondrosarcomas,[1],no significant effect on iNOS expression
same,"Nitrite released, % inhibition","[2]; 5 μM (Table 2: 5 μm), LPS 100 ng/ml, 16-18 h, 5 µM",63.0%
same,inhibition at 5 µM,[2]; [18],> 60%
same,"NOS expression in murine macrophages, endothelial cells and smooth muscles",[10],abolishes NOS expression
"O=C(O)CN(CCN(CC(=O)O)CC(=O)O)CC(=O)O [EDTA, ethylenediaminetetraacetic acid]",human iNOS activity,[14],markedly reduces
"O=C([O-])c1ccccc1O.[Na+] [Sodium salicylate, sodium salicylate]",COX inhibition,[3],an ineffective inhibitor of COX
same,inhibition of iNOS expression,"[11]; 2-3 mM, variable in 4 independent experiments",0-35%
same,effect on iNOS expression at increased concentration,[11]; 5 and 20 mM,did not cause increased inhibition of iNOS expression
same,inhibition at 2000 µM,"[11]; Mus musculus, RAW264.7, read-out: inhibition of iNOS expression, 2 mM, Western blot, 16-18 h",~15%
same,inhibition at 3000 µM,"[11]; Mus musculus, RAW264.7, read-out: inhibition of iNOS protein expression, 3 mM, approximate, densitometry",~15%
same,sensitivity of OA-NOS,[5],inhibited; also recorded: shows sensitivity
same,inhibition of iNOS expression in rat chondrosarcomas,[1],~ 55%
same,effect on iNOS in rat chondrosarcomas,[1],significant inhibition of iNOS
same,Specific activity of iNOS,[12]; 3 mM,304.0 ± 48.1 pmol/min/mg protein
same,inhibition at 3000 µM,"[12]; Mus musculus, RAW264.7, 16 h, read-out: Specific activity, % inhibition, 3 mM, cell-free extracts, 16 h",2%
same,effect on specific activity of iNOS,"[12]; NaSal 3 mM, indomethacin 5 μM (Table 1), therapeutic concentrations",did not inhibit
same,inhibition of iNOS catalytic activity in cell-free extracts (specific activity in in vitro assay),[4]; 20 min preincubation,~ 1%
same,effect on the catalytic activity of iNOS,"[4]; indomethacin 5 μM, sodium salicylate 1 mM",no significant differences; also recorded: no significant effect on the catalytic activity of iNOS
same,IC50,[15],3 mM
same,"Nitrite released, Nitrite","[2]; 3 mM, LPS 100 ng/ml, 16-18 h",27.1 ± 8.8 µM
same,IC50,"[2]; Mus musculus, RAW264.7, read-out: IC50 with respect to nitrite accumulation",20 mM
same,inhibition at 3000 µM,"[2]; Mus musculus, RAW264.7, read-out: Nitrite released, % inhibition, 3 mM, LPS 100 ng/ml, 16-18 h",~7%
same,inhibition at 20000 µM,"[2]; Mus musculus, RAW264.7, read-out: inhibition of accumulation of nitrites, 20 mM, suprapharmacological",50%
same,inhibition at 5000 µM,"[2]; Mus musculus, RAW264.7, read-out: inhibition of nitrite accumulation, 5 mM, suprapharmacological",15 ± 1%
same,effect on nitrite accumulation / NOS expression in OA cartilage,[8],blocked iNOS expression in OA cartilage
same,rank order of inhibition of spontaneous nitrite accumulation,[8],aspirin>indomethacin>sodium salicylate
same,activation of NF-κB,"[16]; 5-20 mM, suprapharmacological",interfere in the activation of NF-κB
same,NF-κB-dependent transcription,"[16]; aspirin 3 mM, sodium salicylate 5 mM, luciferase reporter",inhibit NF-κB-dependent transcription
same,"NF-κB activation, gel shift assays",[16]; same concentrations (aspirin 3 mM; sodium salicylate 5 mM),no significant effect on NF-κB activation
TGF-β1: cytokine TGF-β1,iNOS expression in macrophages,[17],suppresses iNOS expression
same,arthritis morbidity / protection,[13],significant degree of protection
